Test results taken from patent publication US9399646B2 (Genentech, Inc., priority 2010, dated 2016).

Experiments:
ER-α in MCF-7 cells = target: T1, ER-α in MCF-7 cells (Homo sapiens, UniProt P03372); assay: Breast cancer cell ER-α in cell western assay (SP1); format: cell-based; design: endogenous in cells; host or cells: MCF-7; settings: 4 or 24 hr post compound addition; for Emax: MCF7, SP1 antibody, read-out: ER-α In Cell Western Assay (SP1) Max Response; for DC50: SP1 antibody, read-out: ER-α In Cell Western Assay (SP1) IC50
T1 sequence (P03372 1-595): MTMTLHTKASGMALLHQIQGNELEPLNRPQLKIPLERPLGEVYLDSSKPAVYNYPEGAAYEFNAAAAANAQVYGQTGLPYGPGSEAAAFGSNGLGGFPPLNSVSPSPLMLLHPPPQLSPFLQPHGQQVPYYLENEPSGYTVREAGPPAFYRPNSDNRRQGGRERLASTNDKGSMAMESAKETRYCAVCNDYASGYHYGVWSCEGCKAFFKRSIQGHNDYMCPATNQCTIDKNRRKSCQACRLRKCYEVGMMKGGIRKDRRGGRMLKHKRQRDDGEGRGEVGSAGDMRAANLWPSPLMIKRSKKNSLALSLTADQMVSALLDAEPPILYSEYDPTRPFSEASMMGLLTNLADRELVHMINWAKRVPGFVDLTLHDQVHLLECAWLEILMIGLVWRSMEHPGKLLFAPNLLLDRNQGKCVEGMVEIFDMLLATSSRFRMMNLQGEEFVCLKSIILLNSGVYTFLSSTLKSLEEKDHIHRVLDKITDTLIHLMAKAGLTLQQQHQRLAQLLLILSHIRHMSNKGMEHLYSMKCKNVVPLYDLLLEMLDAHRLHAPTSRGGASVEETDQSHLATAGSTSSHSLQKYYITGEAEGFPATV
Method in brief: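 ER-α protein levels were measured in MCF-7 cells after 4 or 24 hr compound exposure (final 0.3–0.000003 μM) in RPMI containing 10% charcoal-stripped FBS.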

MCF-7 cells = assay: Breast cancer cell viability assay (CellTiter-Glo, 5 days); format: cell-based; settings: 5 days' compound exposure; for IC50: Homo sapiens, MCF7, 120 h
Method in brief: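 MCF-7 cells, 320 per well in RPMI with 10% FBS and 20 mM HEPES, adhered overnight, then exposed 5 days to an eleven-point semilog dilution (final 0.3-0.000003 μM). CellTiter-Glo luminescence read; % viability = (sample − cell-free background)/(untreated − background) × 100.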

Row | SMILES | Emax (ER-α in MCF-7 cells) | DC50 (ER-α in MCF-7 cells) | MCF7 Viability Assay Max Response (MCF-7 cells) | IC50 (MCF-7 cells)
1 | CC/C(=C(/c1ccc(/C=C/C(=O)O)cc1)c1ccc2[nH]ncc2c1)c1ccc2sccc2c1 [Compound 272, (E)-3-(4-((E)-2-(Benzo[b]thiophen-5-yl)-1-(1H-indazol-5-yl)but-1-en-1-yl)phenyl)acrylic acid] | ≥ 40% | ≤ 100 nM | ++ (++ = a single % value ≧ 40%) | ≤ 100 nM
2 | CC/C(=C(/c1ccc(/C=C/C(=O)O)cc1)c1ccc2[nH]ncc2c1)c1ccc2sc(C)nc2c1 [Compound 273, (E)-3-(4-((E)-1-(1H-Indazol-5-yl)-2-(2-methylbenzo[d]thiazol-5-yl)but-1-en-1-yl)phenyl)acrylic acid] | ≥ 40% | ≤ 100 nM | ++ (++ = a single % value ≧ 40%) | ≤ 100 nM
3 | CC/C(=C(/c1ccc(/C=C/C(=O)O)cc1)c1ccc2[nH]ncc2c1)c1cc(C)sc1C [Compound 274, (E)-3-(4-((E)-2-(2,5-Dimethylthiophen-3-yl)-1-(1H-indazol-5-yl)but-1-en-1-yl)phenyl)acrylic acid] | ≥ 40% | ≤ 100 nM | ++ (++ = a single % value ≧ 40%) | ≤ 100 nM
4 | CC/C(=C(/c1ccc(/C=C/C(=O)O)cc1)c1ccc2scnc2c1)c1ccc(F)cc1Cl [Compound 275, (E)-3-(4-((E)-1-(Benzo[d]thiazol-5-yl)-2-(2-chloro-4-fluorophenyl)but-1-en-1-yl)phenyl)acrylic acid] | ≥ 40% | ≤ 100 nM | ++ (++ = a single % value ≧ 40%) | ≤ 100 nM
5 | CC/C(=C(/c1ccc(/C=C/C(=O)O)cc1)c1ccc2scnc2c1)c1cscc1C [Compound 276, (E)-3-(4-((E)-1-(Benzo[d]thiazol-5-yl)-2-(4-methylthiophen-3-yl)but-1-en-1-yl)phenyl)acrylic acid] | ≥ 40% | ≤ 100 nM | ++ (++ = a single % value ≧ 40%) | ≤ 100 nM
6 | O=C(O)/C=C/c1ccc(/C(=C(\c2ccc(F)cc2Cl)C2CCC2)c2ccc3scnc3c2)cc1 [Compound 278, (E)-3-(4-((E)-1-(Benzo[d]thiazol-5-yl)-2-(2-chloro-4-fluorophenyl)-2-cyclobutylvinyl)phenyl)acrylic acid] | ≥ 40% | ≤ 100 nM | ++ (++ = a single % value ≧ 40%) | ≤ 100 nM
7 | Cc1cscc1/C(=C(\c1ccc(/C=C/C(=O)O)cc1)c1ccc2scnc2c1)C1CCC1 [Compound 279, (E)-3-(4-((E)-1-(Benzo[d]thiazol-5-yl)-2-cyclobutyl-2-(4-methylthiophen-3-yl)vinyl)phenyl)acrylic acid] | ≥ 40% | ≤ 100 nM | ++ (++ = a single % value ≧ 40%) | ≤ 100 nM
8 | CC/C(=C(/c1ccc(/C=C/C(=O)O)cc1)c1ccc2scnc2c1)c1ccccc1Cl [Compound 280, (E)-3-(4-((E)-1-(Benzo[d]thiazol-5-yl)-2-(2-chlorophenyl)but-1-en-1-yl)phenyl)acrylic acid] | ≥ 40% | ≤ 100 nM | ++ (++ = a single % value ≧ 40%) | ≤ 100 nM
9 | CC/C(=C(/c1ccc(/C=C/C(=O)O)cc1)c1ccc2scnc2c1)c1ccc(F)cc1 [Compound 281, (E)-3-(4-((E)-1-(Benzo[d]thiazol-5-yl)-2-(4-fluorophenyl)but-1-en-1-yl)phenyl)acrylic acid] | ≥ 40% | ≤ 100 nM | ++ (++ = a single % value ≧ 40%) | > 100 nM
10 | CC/C(=C(/c1ccc(/C=C/C(=O)O)cc1)c1ccc2scnc2c1)c1ccc(F)cc1C [Compound 282, (E)-3-(4-((E)-1-(Benzo[d]thiazol-5-yl)-2-(4-fluoro-2-methylphenyl)but-1-en-1-yl)phenyl)acrylic acid] | ≥ 40% | ≤ 100 nM | ++ (++ = a single % value ≧ 40%) | ≤ 100 nM
11 | CC/C(=C(/c1ccc(/C=C/C(=O)O)cc1)c1ccc2scnc2c1)c1ccccc1C [Compound 283, (E)-3-(4-((E)-1-(Benzo[d]thiazol-5-yl)-2-(o-tolyl)but-1-en-1-yl)phenyl)acrylic acid] | ≥ 40% | ≤ 100 nM | ++ (++ = a single % value ≧ 40%) | ≤ 100 nM
12 | CC/C(=C(/c1ccc(/C=C/C(=O)O)cc1)c1ccc2scnc2c1)c1ccncc1Cl [Compound 284, (E)-3-(4-((E)-1-(Benzo[d]thiazol-5-yl)-2-(3-chloropyridin-4-yl)but-1-en-1-yl)phenyl)acrylic acid] | ≥ 40% | ≤ 100 nM | ++ (++ = a single % value ≧ 40%) | ≤ 100 nM
13 | O=C(O)/C=C/c1ccc(/C(=C(\c2ccccc2)C2CCC2)c2ccc3scnc3c2)cc1 [Compound 286, (E)-3-(4-((E)-1-(Benzo[d]thiazol-5-yl)-2-cyclobutyl-2-phenylvinyl)phenyl)acrylic acid] | ≥ 40% | ≤ 100 nM | ++ (++ = a single % value ≧ 40%) | ≤ 100 nM
14 | CC/C(=C(/c1ccc(/C=C/C(=O)O)cc1)c1ccc2c(c1)CNC2=O)c1ccc(F)cc1Cl [Compound 287, (E)-3-(4-((E)-2-(2-Chloro-4-fluorophenyl)-1-(1-oxoisoindolin-5-yl)but-1-en-1-yl)phenyl)acrylic acid] | ≥ 40% | ≤ 100 nM | ++ (++ = a single % value ≧ 40%) | ≤ 100 nM
15 | CC/C(=C(/c1ccc(/C=C/C(=O)O)cc1)c1ccc2[nH]ncc2c1)c1ccc(S(=O)(=O)C(F)(F)F)cc1 [Compound 288] | ≥ 40% | ≤ 100 nM | ++ (++ = a single % value ≧ 40%) | > 100 nM
16 | CC/C(=C(/c1ccc(/C=C/C(=O)O)cc1)c1ccc2cccnc2c1)c1ccc(F)cc1Cl [Compound 289, (E)-3-(4-((E)-2-(2-Chloro-4-fluorophenyl)-1-(quinolin-7-yl)but-1-en-1-yl)phenyl)acrylic acid] | ≥ 40% | ≤ 100 nM | ++ (++ = a single % value ≧ 40%) | > 100 nM
17 | CC/C(=C(/c1ccc(/C=C/C(=O)O)cc1)c1ccc2[nH]ncc2c1)c1ccc(Oc2ncccn2)cc1 [Compound 290, (E)-3-(4-((E)-1-(1H-Indazol-5-yl)-2-(4-(pyrimidin-2-yloxy)phenyl)but-1-en-1-yl)phenyl)acrylic acid] | ≥ 40% | ≤ 100 nM | ++ (++ = a single % value ≧ 40%) | ≤ 100 nM
18 | CC/C(=C(/c1ccc(/C=C/C(=O)O)cc1)c1ccc2[nH]ncc2c1)c1ccc(Oc2ccccc2)cc1Cl [Compound 291, (E)-3-(4-((E)-2-(2-Chloro-4-phenoxyphenyl)-1-(1H-indazol-5-yl)but-1-en-1-yl)phenyl)acrylic acid] | ≥ 40% | ≤ 100 nM | ++ (++ = a single % value ≧ 40%) | ≤ 100 nM
19 | CC/C(=C(/c1ccc(/C=C/C(=O)O)cc1)c1ccc2[nH]ncc2c1)c1ccc(Oc2cccnc2)cc1 [Compound 292, (E)-3-(4-((E)-1-(1H-Indazol-5-yl)-2-(4-(pyridin-3-yloxy)phenyl)but-1-en-1-yl)phenyl)acrylic acid] | ≥ 40% | ≤ 100 nM | ++ (++ = a single % value ≧ 40%) | ≤ 100 nM
20 | CC/C(=C(/c1ccc(/C=C/C(=O)O)cc1)c1ccc2[nH]ncc2c1)c1ccc(Oc2cnccn2)cc1 [Compound 293, (E)-3-(4-((E)-1-(1H-Indazol-5-yl)-2-(4-(pyrazin-2-yloxy)phenyl)but-1-en-1-yl)phenyl)acrylic acid] | ≥ 40% | ≤ 100 nM | ++ (++ = a single % value ≧ 40%) | ≤ 100 nM
21 | CC/C(=C(/c1ccc(/C=C/C(=O)O)cc1)c1ccc2[nH]ncc2c1)c1ccc(F)c(Oc2ccccc2)c1 [Compound 294, (E)-3-(4-((E)-2-(4-Fluoro-3-phenoxyphenyl)-1-(1H-indazol-5-yl)but-1-en-1-yl)phenyl)acrylic acid] | ≥ 40% | ≤ 100 nM | ++ (++ = a single % value ≧ 40%) | ≤ 100 nM
22 | CC/C(=C(/c1ccc(/C=C/C(=O)O)cc1)c1ccc2[nH]ncc2c1)c1ccc(Oc2ccccc2)c(F)c1 [Compound 295, (E)-3-(4-((E)-2-(3-Fluoro-4-phenoxyphenyl)-1-(1H-indazol-5-yl)but-1-en-1-yl)phenyl)acrylic acid] | ≥ 40% | ≤ 100 nM | ++ (++ = a single % value ≧ 40%) | ≤ 100 nM
